Our source for the IC50 and Activity values is ChEMBL document CHEMBL1154672, “Four new cytotoxic oligosaccharidic derivatives of 12-oleanene from Lysimachia heterogenea Klatt” (Bioorg Med Chem Lett, 2009).

As a reminder, the IC50 is the point on the concentration scale where inhibition reaches its midpoint.

Assay type in all cases: functional, cell-based
Assay [1] deals with A549. Briefly: Cytotoxicity against human A549 cells after 72 hrs. To be noted: A549, 72 h.
Assay [2] deals with A549. Briefly: Cytotoxicity against human A549 cells after 9 hrs. To be noted: A549, 9 h.
Assay [3] deals with A549. Briefly: Cytotoxicity against human A549 cells. The following applies: TDE = time-dependent effect.
Assay [4] has as its system A549. Briefly: Cytotoxicity against human A549 cells after 2 hrs. To be noted: A549, 2 h.

As to `CC1(C)CC[C@]2(CO)[C@H](O)C[C@]3(C)C(=CC[C@@H]4[C@@]5(C)CC[C@H](O[C@@H]6OC[C@H](O)[C@H](O)[C@H]6O[C@@H]6O[C@H](CO)[C@@H](O)[C@H](O)[C@H]6O)[C@@](C)(CO)[C@@H]5CC[C@]43C)[C@H]2C1` [HETEROGENOSIDE A], the IC50 was 24.5 µM with A549 [1] and over 100 µM in the assay with A549 [2]. In addition, the Activity result with A549 [3] is “tde”.
`CC1(C)CC[C@]2(CO)[C@H](O)C[C@]3(C)C(=CC[C@@H]4[C@@]5(C)CC[C@H](O[C@@H]6OC[C@H](O)[C@H](O)[C@H]6O[C@@H]6O[C@H](CO)[C@@H](O)[C@H](O)[C@H]6O[C@@H]6OC[C@@H](O)[C@H](O)[C@H]6O)[C@@](C)(CO)[C@@H]5CC[C@]43C)[C@H]2C1` [HETERGENOSIDE B]: the values for the IC50 in the assay on A549 [1] and in the assay on A549 [4] were 19.1 µM and 26.4 µM, respectively.
